Key:
MDA-MB-231 cells = assay: Clonogenic growth assay; format: cell-based, human; conditions: 10 μM for 48 h, nine days of growth
Protocol: Figure 9 Clonogenic growth assay of DCAF11‐recruiting PROTACs. MDA‐MB‐231 cells were treated with 10 μM of the respective compound or vehicle (DMSO) for 48 hours. (A) Representative images of crystal violet stained colonies after nine days of growth. (B) Quantification of counted colonies, presented as mean ± standard deviation of three biological replicates, each performed in triplicates. Significance of quantification compared to vehicle: ns=p≥0.05; **=p≤0.01 and ***=p≤0.001. […]
Subsequently, cells were harvested and
plated in 6-well plates at a density of 750 cells per well in triplicates. The cell culture medium was
changed after five days. Nine days after plating, the colonies were carefully washed with 500 µL DPBS
and stained with 500 µL crystal violet solution (0.5% in methanol). After 30 minutes of incubation at
room temperature, the wells were gently rinsed with deionized water. After counting the formed
colonies, GraphPad Prism (GraphPad Software) was used for bar graph creation. Significance testing
was performed with a one-way analysis of variance (ANOVA). Dunnett’s post-hoc test was employed
to obtain significance levels of each mean compared to a reference mean value.

MM.1S cells = assay: Cell cycle analysis by PI staining and flow cytometry; format: cell-based, human; conditions: 10 μM, 48 h
Protocol: GraphPad Prism (GraphPad Software). […]
Biotech), resuspended in 1 mL EtOH/D PBS (7/3 v/v), and fixed for 30 min at 4 °C. The samples were rehydrated with DPBS and treated with 5 µg /mL RNAse ( Catalog# EN0531 , ThermoFisher Scientific Inc.) for 15 min at room temperature. The staining was performed with 3 µM propidium iodide (in DPBS) for 15 min at room temperature and analyzed by flow cytometry ( Guava easyCyteTM, Luminex, […]
Lakes, NJ, USA), using the Watson Pragmatic algorithm.[6] GraphPad Prism (GraphPad Software) was used for normalization, statistical analysis, and bar graph creation. Significance testing was performed with a one-way analysis of variance (ANOVA). Dunnett’s post-hoc test was employed to obtain […]
Final DMSO concentration was 0.1%.
Staining was performed with
Fluorescence was measured by flow cytometry (Guava® easyCyteTM, Luminex, Austin, Texas). GraphPad Prism (GraphPad Software) was used for normalization, statistical analysis, and bar graph creation. Significance testing was performed with a one-way analysis of variance (ANOVA).
Subsequently, cells were harvested and […]
After 30 minutes of incubation at […]
Dunnett’s post-hoc test was employed

HDAC1 = HDAC1 (Homo sapiens, UniProt Q13547); assay: Immunoblot HDAC1 degradation in MM.1S cell lysates; format: cell-based; set-up: endogenous in cells; host or cells: MM.1S; conditions: MM1.S, MM.1S cells, 24 h, read-out: maximal degradation (Dmax) HDAC1
HDAC1, sequence (Q13547 whole entry, canonical isoform): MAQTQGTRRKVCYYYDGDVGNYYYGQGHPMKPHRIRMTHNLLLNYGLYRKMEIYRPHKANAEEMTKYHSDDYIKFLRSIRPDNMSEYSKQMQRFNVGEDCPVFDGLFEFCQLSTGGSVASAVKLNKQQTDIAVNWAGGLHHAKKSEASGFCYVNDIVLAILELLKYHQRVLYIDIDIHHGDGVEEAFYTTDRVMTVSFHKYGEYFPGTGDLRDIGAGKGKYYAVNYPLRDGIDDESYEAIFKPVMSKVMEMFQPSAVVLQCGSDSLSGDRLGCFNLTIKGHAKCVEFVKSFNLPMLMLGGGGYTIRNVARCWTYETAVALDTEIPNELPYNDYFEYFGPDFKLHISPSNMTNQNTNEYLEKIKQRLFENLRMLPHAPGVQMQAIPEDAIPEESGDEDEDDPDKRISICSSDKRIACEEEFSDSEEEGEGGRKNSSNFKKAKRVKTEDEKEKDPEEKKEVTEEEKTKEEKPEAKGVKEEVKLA
Protocol: Figure 6 Examination of HDAC isoform degradation. MM.1S cells were treated with the indicated compounds (10 μM) or vehicle (DMSO) for 24 h. HDAC1, 2, 4, and 6 levels were analyzed by immunoblotting. (A) Representative images from a total of n=3 biological replicates.
(§1) 2.5. Aqueous Stability Assay
(§2) For stability testing in aqueous solution, a 10-fold concentrated DMSO solution of the respective compounds was diluted in DPBS to generate a 10 µM concentration (final DMSO content of 10%).
Samples of the aqueous solutions were taken after 0, 24, 48, and 72 h at room temperature and the amounts of the parental compound and potential fragments were monitored by HPLC gradient A (see 3.1 General Information). […]
(§3) Afterwards, proteins were transferred with the Trans -Blot Turbo Transfer System (Catalog# 1704150, Bio-Rad) to Immobilon-FL PVDF membranes (Catalog# IPFL00005, Mill ipore Merck, Burlington, MA, USA) at 1.0 A for 30 min and treated with 5% milk-powder solution for 1 h at room temperature under slight agitation. […] The ChemiDoc XRS+ System (Catalog# 1708265 , Bio-Rad) was used for detection and Image Lab Software 6.1 (Bio-Rad) for quantification. […]
(§4) In vitro inhibitory activities against HDAC1, 2 , and 6 were measured using a previously published protocol.[3] In vitro inhibitory activities against HDAC4 were measured using a previously published protocol with slight modifications. […]

[1] = Aqueous stability assay in DPBS buffer (HPLC); format: physicochemical; conditions: DPBS pH 7.4, 10% DMSO, room temperature, 72 hours
Protocol: and A6. Compounds were diluted in DPBS buffer (pH = 7.4; final DMSO concentration: 10%) and the remaining compound content was analyzed by HPLC. The peak area at 0 h was used for normalization.
Mean ± standard deviation of n = 2 replicates.
Figure S4. Analysis of time dependent degradation by 1j of HDAC1 (A) and HDAC6 (B) by Simple Western™ immunoassay analysis of MM.1S cell lysates. MM.1S cells were treated with 1j (10 µM) or vehicle (DMSO) for the indicated time period. Quantification of protein levels presented as mean ± standard deviation of n = 3 biological replicates. Si gnificance compared to vehicle: * = p≤0.05 , […]
as §1, §2
Samples of the aqueous solutions were taken after 0, 24, 48, and 72 h at room temperature and the amounts of the parental compound and potential fragments were monitored by HPLC gradient A (see 3.1 General Information). The peak area of the 0 h sample was used for normalization. All compounds were tested in duplicates and GraphPad Prim was used for evaluation and data visualization.
The cell lysis was performed as descripted in 3.2. Simple Western Immunoassay. […]
as §3, §4

Dmax at 10 µM (HDAC1) [%] | decomposition / reduction in content in DPBS buffer [1] | Structure (SMILES) | reduction of colonies (clonogenic growth) (MDA-MB-231 cells) | effect on cell cycle phases (MM.1S cells)
90 | more than 90% | O=C(CCCCCCNC(=O)c1ccc(NC(=O)CCCCCCCCCCCN(C(=O)CCl)C(C(=O)NCc2ccccc2)c2ccc(Cl)c(Cl)c2)cc1)NO (centres unmarked) [Compound 1j] | significant reduction of colonies | increase of the sub G1 phase, while the S phase was decreased
74 | 31% | O=C(CCCCCCNC(=O)c1ccc(N(C(=O)CCl)C(C(=O)NCc2ccccc2)c2ccc(Cl)c(Cl)c2)cc1)NO (centres unmarked) [Compound 2] | significant reduction of colonies | increase of the sub G1 phase, while the S phase was decreased

— publication PMC12091851, “Replacing a Cereblon Ligand by a DDB1 and CUL4 Associated Factor 11 (DCAF11) Recruiter Converts a Selective Histone Deacetylase 6 PROTAC into a Pan‐Degrader” (Chemmedchem, 2025)
